Data as given in patent US8680282B2, “Cyclic inhibitors of carnitine palmitoyltransferase and treating cancer” (University Health Network, priority 2007, dated 2014).

Columns and labels:
Assay in all cases: Cancer cell growth inhibition, SRB assay
Assay type in all cases: cell-based, human
COLO-205 = details: SRB at Day 6; for GI50: Homo sapiens, 144 h, COLO-205 (Colon), triplicate; for Percentage of Growth Inhibition: COLO-205, at 10 μM, NE = no activity at 10 micromolar
A549 = test system: A549; parameters: Percentage of Growth Inhibition: scale not given here; details: SRB at Day 6; for GI50: Homo sapiens, 144 h, A549 (Lung), triplicate; for Percentage of Growth Inhibition: A549, at 10 μM, NE = no activity at 10 micromolar
SW620 = test system: SW620; parameters: Percentage of Growth Inhibition: scale not given here; details: SRB at Day 6; for GI50: Homo sapiens, SW-620, 144 h, SW620 (Colon), triplicate; for Percentage of Growth Inhibition: SW620, at 10 μM, NE = no activity at 10 micromolar
HCT-15 = test system: HCT-15; parameters: Percentage of Growth Inhibition: scale not given here; details: SRB at Day 6; for GI50: Homo sapiens, 144 h, HCT-15 (Colon), triplicate; for Percentage of Growth Inhibition: HCT-15, at 10 μM, NE = no activity at 10 micromolar
H358 = test system: H358; parameters: Percentage of Growth Inhibition: unit not given here; details: SRB at Day 6; for GI50: Homo sapiens, NCI-H358, 144 h, H358 (Lung), triplicate; for Percentage of Growth Inhibition: H358, at 10 μM, NE = no activity at 10 micromolar
Method: (§1) Human cancer cells (MCF-7, H358, H460, HCT116 p53^+/+, HCT116 p53^−/−, A172, PC-3, DU-145 and SW626) were maintained in DMEM medium containing 10% Fetal Bovine Serum (FBS) (Invitrogen, Burlington, ON, Canada) and normal cells HMEC, 184A1, NHBE and PrEC were cultured in MEGM, MEGM plus transferring and cholera toxin, BEGM and PrEGM supplemented with various growth factors (Cambrex, Charles city, Iowa, USA), respectively.
(§2) Compounds of Examples S1 to S30, and 4-(carboxymethyl)-4-(6-(3-hexyloxy)phenoxy)hexanoamido)-1,1-dimethylpiperidinium 2,2,2-trifluoroactate (“Compound A”) were tested in this example. Each of the tested compounds was dissolved in DMSO and further diluted in cell culture medium for the experiments performed. Cells were seeded into 96-well plates with 1,500-5,000 cells/well according to cell growth rate. After 24 h, DMEM medium containing 10% FBS were changed to DMEM containing 3% FBS for cancer cells. The compound was added into the cell culture at the indicated concentrations, and the final concentration of DMSO was adjusted to a final concentration of 0.1%. Cell viability was assessed by Sulforhodamine B (SRB) assay at Day 6.
(§3) Sulforhodamine B (SRB) (Sigma, Oakville, ON, Canada) is a water-soluble dye that binds to the basic amino acids of the cellular proteins. Thus, colorimetric measurement of the bound dye provides an estimate of the total protein mass that is related to the cell number. The cells were fixed in situ by gently aspirating off the culture media and adding 50 ul of cold 10% Tri-chloroacetic Acid (TCA) per well and incubated at 4° C. for 30-60 min. The plates were washed five times with water and allowed to air dry for 5 min. 50 ul of 0.4% (w/v) SRB dissolved in 1% (v/v) acetic acid were added into each well, plates were then incubated at RT for 30 min for staining, washed four times with 1% acetic acid to remove any unbound dye and then allowed to air dry for 5 min. Stain was solubilized with 100 ul of 10 mM Tris pH 10.5 per well. Absorbance was read at 570 nm on a spectrophotometer. GI50 (compound concentration required for 50% of growth inhibition) was calculated using GraphPad Prism 4.0 software (GraphPad Software, Inc., San Diego, Calif., USA). Growth inhibition (%) was determined as percentage of cells remaining compared to the DMSO-treated cells as control.

A172 = details: SRB at Day 6; for GI50: Homo sapiens, A 172, 144 h, A172 (Brain), triplicate; for Percentage of Growth Inhibition: A172, at 10 μM, NE = no activity at 10 micromolar
Method: as §1, §2, §3

PC-3 = details: SRB at Day 6; for GI50: Homo sapiens, 144 h, PC-3 (Prostate), triplicate; for Percentage of Growth Inhibition: PC-3, at 10 μM, NE = no activity at 10 micromolar
Method: as §1, §2, §3

Row | Compound | GI50 (COLO-205) | GI50 (A549) | GI50 (SW620) | GI50 (HCT-15) | GI50 (H358) | GI50 (A172) | GI50 (PC-3) | Percentage of Growth Inhibition (COLO-205) | Percentage of Growth Inhibition (SW620) | Percentage of Growth Inhibition (HCT-15) | Percentage of Growth Inhibition (H358) | Percentage of Growth Inhibition (A172) | Percentage of Growth Inhibition (PC-3) | Percentage of Growth Inhibition (A549)
1 | CCCCCCCCc1ccc(NC(=O)NC2(CC(=O)O)CC[N+](C)(C)CC2)cc1 [Example S2, 4-(Carboxymethyl)-1,1-dimethyl-4-(3-(4-octylphenyl)ureido)piperidinium 2,2,2-trifluoroacetate] | 1.3 µM | 99 µM | 2 µM | 3 µM | 3.1 µM | 1.8 µM | 8.2 µM | – | – | – | – | – | – | –
2 | CCCCCc1ccc(S(=O)(=O)NC2(CC(=O)O)CCN(C)CC2)cc1 [Example S3, 4-(carboxymethyl)-1-methyl-4-(4-pentylphenylsulfonamido)piperidinium 2,2,2-trifluoroacetate] | – | – | – | – | – | – | – | 0.03424% | 0.03948% | 0.06515% | 0.4638 | – | – | –
3 | CCCCCc1ccc(S(=O)(=O)NC2(CC(=O)O)CC[N+](C)(C)CC2)cc1 [Example S4, 4-(Carboxymethyl)-1,1-dimethyl-4-(4-pentylphenylsulfonamido)piperidinium 2,2,2-trifluoroacetate] | > 50 µM | – | > 50 µM | > 50 µM | – | > 50 µM | > 50 µM | – | – | – | – | – | – | –
4 | C[N+]1(C)CCC(CC(=O)O)(NC(=O)c2ccc(CCc3ccccc3)o2)CC1 [Example S5, 4-(Carboxymethyl)-1,1-dimethyl-4-(5-phenethylfuran-2-carboxamido)-piperidinium 2,2,2-trifluoroacetate] | – | – | – | – | – | – | – | 0.1219% | 0.05572% | – | 0.08927 | 0.01342% | – | –
5 | C[N+]1(C)CCC(CC(=O)O)(NC(=O)c2ccc(C#Cc3ccccc3)o2)CC1 [Example S6, 4-(Carboxymethyl)-1,1-dimethyl-4-(5-(phenylethynyl)furan-2-carboxamido)-piperidinium 2,2,2-trifluoroacetate] | – | – | – | – | – | – | – | 0.1543% | 0.05805% | – | 0.1074 | 0.05672% | 0.03591% | –
6 | CCCCCCCCc1ccc(NS(=O)(=O)NC2(CC(=O)O)CCN(C)CC2)cc1 [Example S7, 4-(carboxymethyl)-1-methyl-4-(N-(4-octylphenyl)sulfamoylamino)-piperidinium 2,2,2-trifluoroacetate] | 74 µM | 52 µM | > 50 µM | 80 µM | 20 µM | 15 µM | 6 µM | – | – | – | – | – | – | –
7 | CCCCCCCCc1ccc(NS(=O)(=O)NC2(CC(=O)O)CC[N+](C)(C)CC2)cc1 [Example S8, 4-(carboxymethyl)-1,1-dimethyl-4-(N-(4-octylphenyl)sulfamoylamino)piperidinium 2,2,2-trifluoroacetate] | 5.3 µM | 10 µM | 8.4 µM | 9 µM | 0.9 µM | 2.2 µM | 1.7 µM | – | – | – | – | – | – | –
8 | CCCCCCCCc1ccc(NC(=O)NC2(CC(=O)O)CCC[NH+](C)C2)cc1 (stereo not drawn) [Example S9, 3-(Carboxymethyl)-1-methyl-3-(3-(4-octylphenyl)ureido)piperidinium 2,2,2-trifluoroacetate] | – | – | – | – | – | – | – | 0.2852% | 0.04904% | – | – | – | 0.2585% | 0.451%
9 | CCCCCCCCc1ccc(NC(=O)NC2(CC(=O)O)CCC[N+](C)(C)C2)cc1 (stereo not drawn) [Example S10, 3-(carboxymethyl)-1,1-dimethyl-3-(3-(4-octylphenyl)ureido)-piperidinium 2,2,2-trifluoroacetate] | 1 µM | 73 µM | 2.5 µM | 16 µM | 1 µM | 4.6 µM | 0.9 µM | – | – | – | – | – | – | –
10 | CCCCCCCCc1ccc(NS(=O)(=O)NC2(CC(=O)O)CCCN(C)C2)cc1 (stereo not drawn) [Example S15, 3-(carboxymethyl)-1-methyl-3-(N-(4-octylphenyl)sulfamoylamino)-piperidinium 2,2,2-trifluoroacetate] | 21 µM | 7.5 µM | 27 µM | 32 µM | 12 µM | 2.7 µM | 2.8 µM | – | – | – | – | – | – | –
11 | CCCCCCCCc1ccc(NS(=O)(=O)NC2(CC(=O)O)CCC[N+](C)(C)C2)cc1 (stereo not drawn) [Example S16, 3-(carboxymethyl)-1,1-dimethyl-3-(N-(4-octylphenyl)sulfamoylamino)-piperidinium 2,2,2-trifluoroacetate] | 10 µM | 6.2 µM | 20 µM | 36 µM | 1.4 µM | 1.1 µM | 2.1 µM | – | – | – | – | – | – | –
12 | CCCCCCCCc1ccc(NC(=O)NC2(CC(=O)O)CC[N+](C)(C)C2)cc1 (stereo not drawn) [Example S18, 3-(carboxymethyl)-1,1-dimethyl-3-(3-(4-octylphenyl)ureido)-pyrrolidinium 2,2,2-trifluoroacetate] | 1.9 µM | 38 µM | 3.1 µM | 5.4 µM | 2.7 µM | 1.9 µM | 6.6 µM | – | – | – | – | – | – | –
13 | CCCCCc1ccc(S(=O)(=O)NC2(CC(=O)O)CC[N+](C)(C)C2)cc1 (stereo not drawn) [Example S20, 3-(carboxymethyl)-1,1-dimethyl-3-(4-pentylphenylsulfonamido)-pyrrolidinium 2,2,2-trifluoroacetate] | – | – | – | – | – | – | – | 0.3647% | 0.01263% | – | 0.2773 | 0.1176% | – | –
14 | CCCCCCCCCCc1ccc(C(=O)NC2(CC(=O)O)CCN(C)C2)cc1 (stereo not drawn) [Example S21, 3-(carboxymethyl)-3-(4-decylbenzamido)-1-methylpyrrolidinium 2,2,2-trifluoroacetate] | – | – | – | – | – | – | – | 0.02151% | 0.07327% | 0.04235% | 0.6802 | 0.1417% | 0.1562% | –
15 | CCCCCCCCCCc1ccc(C(=O)NC2(CC(=O)O)CC[N+](C)(C)C2)cc1 (stereo not drawn) [Example S22, 3-(Carboxymethyl)-3-(4-decylbenzamido)-1,1-dimethylpyrrolidinium 2,2,2-trifluoroacetate] | – | – | – | – | – | – | – | 0.08112% | 0.2089% | 0.07473% | 0.8129 | 0.1249% | 0.4436% | –
16 | O=C(O)CC1(NC(=O)c2ccc(C#Cc3ccccc3)o2)CNC1 [Example S26, 3-(carboxymethyl)-3-(5-(phenylethynyl)furan-2-carboxamido)-azetidinium 2,2,2-trifluoroacetate] | – | – | – | – | – | – | – | 0.1892% | 0.0551% | – | 0.1437 | – | – | –
17 | CCCCCc1ccc(S(=O)(=O)NC2(CC(=O)O)CN(C)C2)cc1 [Example S27, 3-(carboxymethyl)-1-methyl-3-(4-pentylphenylsulfonamido)azetidinium 2,2,2-trifluoroacetate] | – | – | – | – | – | – | – | – | – | – | 0.07312 | – | 0.0865% | 0.06854%
